Measurements as given in paper PMC12473159, “A Comprehensive Functional Analysis of OsPEAMT1 and OsPEAMT2 Genes in Rice (Oryza sativa L. ssp. japonica)” (Plants, 2025).

Assays:
OsPEAMT2 = biological target: T1, OsPEAMT2 (Oryza sativa, UniProt A0A0P0WPX7); assay: LC-MS/MS of phosphocholine formed; assay type: biochemical; settings: 200 uM P-EA, 200 uM S-adenosyl-L-methionine, HEPES-KOH pH 9.9, 2 mM EDTA, 30 C, 30 min
T1 construct: gene Os05g0548900; forward primer encodes MDAVAAN
T1 sequence (A0A0P0WPX7 1-495): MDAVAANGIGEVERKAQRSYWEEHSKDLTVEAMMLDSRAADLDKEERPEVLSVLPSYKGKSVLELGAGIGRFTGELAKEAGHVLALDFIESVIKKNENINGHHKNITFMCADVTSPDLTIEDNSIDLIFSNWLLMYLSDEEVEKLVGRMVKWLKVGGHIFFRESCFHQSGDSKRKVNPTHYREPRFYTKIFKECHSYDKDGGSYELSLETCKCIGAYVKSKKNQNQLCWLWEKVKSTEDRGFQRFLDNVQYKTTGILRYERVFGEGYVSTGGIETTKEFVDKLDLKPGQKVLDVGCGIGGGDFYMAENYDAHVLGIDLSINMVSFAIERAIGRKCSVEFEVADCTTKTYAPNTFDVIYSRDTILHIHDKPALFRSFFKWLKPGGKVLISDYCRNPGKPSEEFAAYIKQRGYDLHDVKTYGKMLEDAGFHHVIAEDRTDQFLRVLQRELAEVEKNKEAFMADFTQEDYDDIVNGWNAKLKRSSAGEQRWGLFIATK

OsPEAMT1 = biological target: T2, OsPEAMT1 (Oryza sativa, UniProt Q6QA26); assay: LC-MS/MS of phosphocholine formed; assay type: biochemical; settings: 200 uM P-EA, 200 uM S-adenosyl-L-methionine, HEPES-KOH pH 9.9, 2 mM EDTA, 30 C, 30 min
T2 construct: gene PEAMT
T2 sequence (Q6QA26 20-499): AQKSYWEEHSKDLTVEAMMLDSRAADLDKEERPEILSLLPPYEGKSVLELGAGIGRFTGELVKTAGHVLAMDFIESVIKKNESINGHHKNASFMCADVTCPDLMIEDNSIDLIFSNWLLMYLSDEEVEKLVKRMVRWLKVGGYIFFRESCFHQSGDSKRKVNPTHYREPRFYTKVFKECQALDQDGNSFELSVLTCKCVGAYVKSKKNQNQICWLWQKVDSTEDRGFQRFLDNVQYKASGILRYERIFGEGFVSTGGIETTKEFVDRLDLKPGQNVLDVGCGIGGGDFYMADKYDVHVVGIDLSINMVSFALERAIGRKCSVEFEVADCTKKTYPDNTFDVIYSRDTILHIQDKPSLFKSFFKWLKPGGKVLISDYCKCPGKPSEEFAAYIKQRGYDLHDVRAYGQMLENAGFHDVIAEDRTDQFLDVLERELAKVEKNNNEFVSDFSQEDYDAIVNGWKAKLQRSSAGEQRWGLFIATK

NCCOP(=O)(O)O [P-EA]
LC-MS/MS of phosphocholine formed (OsPEAMT2): both recombinant OsPEAMT1 and OsPEAMT2 have the activity to catalyze substrate P-EA producing P-Cho | LC-MS/MS of phosphocholine formed (OsPEAMT1): both recombinant OsPEAMT1 and OsPEAMT2 have the activity to catalyze substrate P-EA producing P-Cho
